pIC50: −log10 of the molar value.
Biological target: T1, IDO1 (Homo sapiens, UniProt P14902)
T1 construct: endogenous in cells; host or cells: HeLa cells (ATCC), IFNgamma-induced
Test: IDO1 cell-based assay (HeLa cells, IFNgamma-induced, N-formylkynurenine/L-tryptophan by RFMS)
Conditions: 10 ng/mL IFNgamma, 24 hours
In short: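 HeLa cells stimulated with 10 ng/mL IFNgamma and exposed to compound (0.5% DMSO final) for 24 h at 37 °C. Conditioned media deproteinized, then N-formylkynurenine and L-tryptophan quantified by RapidFire MS with deuterated tryptophan internal standard; IC50 by curve fitting. Viability checked by CellTiter-Glo.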

T1 sequence (P14902 whole entry): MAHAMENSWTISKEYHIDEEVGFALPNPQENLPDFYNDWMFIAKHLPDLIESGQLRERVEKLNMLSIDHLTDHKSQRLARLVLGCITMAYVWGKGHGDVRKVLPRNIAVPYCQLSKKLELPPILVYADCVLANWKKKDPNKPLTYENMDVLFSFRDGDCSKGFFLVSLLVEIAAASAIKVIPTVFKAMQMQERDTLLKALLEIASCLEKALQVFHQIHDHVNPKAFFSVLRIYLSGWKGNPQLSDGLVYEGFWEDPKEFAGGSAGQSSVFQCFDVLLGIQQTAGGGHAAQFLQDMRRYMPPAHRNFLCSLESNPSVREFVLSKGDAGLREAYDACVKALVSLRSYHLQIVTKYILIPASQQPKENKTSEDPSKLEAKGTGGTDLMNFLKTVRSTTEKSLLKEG

Row | pIC50 | SMILES
1 | < 5.30 | O=C(NCc1ccc(Cl)cc1)C1[C@H]2CC(Oc3cc(C(F)(F)F)nc4ccc(F)cc34)C[C@@H]12 (stereo partly drawn) [Compound 17, (1R,5S)-N-(4-chlorobenzyl)-3-((6-fluoro-2-(trifluoromethyl)quinolin-4-yl)oxy)bicyclo[3.1.0]hexane-6-carboxamide]
2 | < 5.30 | C[C@@H](NC(=O)c1ccc(C#N)cc1)[C@H]1[C@@H]2C[C@H](O)C[C@@H]21 [Compound 296, 4-cyano-N-((R)-1-((1R,3R,5S,6r)-3-hydroxybicyclo[3.1.0]hexan-6-yl)ethyl)benzamide]
3 | 5.70 to 6.70 | O=C(Nc1ccc(Cl)cc1)N[C@H]1[C@@H]2C[C@H](Oc3ccnc4ccc(F)cc34)C[C@@H]21 [Compound 29, 1-(4-chlorophenyl)-3-((1R,3r,5S,6r)-3-((6-fluoroquinolin-4-yl)oxy)bicyclo[3.1.0]hexan-6-yl)urea]
4 | < 5.30 | O=C(NCc1ccc(Cl)cc1)C1[C@H]2CC(Oc3ccnc4ccccc34)C[C@@H]12 (stereo partly drawn) [Compound 16, (1R,5S)-N-(4-chlorobenzyl)-3-(quinolin-4-yloxy)bicyclo[3.1.0]hexane-6-carboxamide]
5 | > 6.70 | CC[C@@H](NC(=O)c1ccc(C)nc1)[C@H]1[C@@H]2C[C@@H](n3cnc4cc(F)c(F)cc43)C[C@@H]21 [Compound 311, N-((R)-1-((1R,3S,5S,6r)-3-(5,6-difluoro-1H-benzo[d]imidazol-1-yl)bicyclo[3.1.0]hexan-6-yl)propyl)-6-methylnicotinamide]
6 | 5.70 to 6.70 | CC(NC(=O)c1ccc(C#N)cc1)[C@H]1[C@@H]2C[C@@H](n3ncc(=O)c4ccccc43)C[C@@H]21 (stereo partly drawn) [Compound 136, 4-cyano-N-(1-((1R,3s,5S,6r)-3-(4-oxocinnolin-1(4H)-yl)bicyclo[3.1.0]hexan-6-yl)ethyl)benzamide]
7 | 5.70 to 6.70 | CCC(NC(=O)c1ccc(Cl)cc1)[C@H]1[C@@H]2C[C@@H](NC(=O)N3CCOCC3)C[C@@H]21 (stereo partly drawn) [Compound 157, N-((1R,3s,5S,6r)-6-(1-(4-chlorobenzamido)propyl)bicyclo[3.1.0]hexan-3-yl)morpholine-4-carboxamide]
8 | > 6.70 | CC[C@@H](NC(=O)c1ccc(Cl)cc1)[C@H]1[C@@H]2C[C@@H](Nc3ccccc3C(=O)O)C[C@@H]21 [Compound 346, 2-(((1R,3S,5S,6r)-6-((R)-1-(4-chlorobenzamido)propyl)bicyclo[3.1.0]hexan-3-yl)amino)benzoic acid]
9 | > 6.70 | CC(NC(=O)c1ccc(Cl)cc1)[C@H]1[C@@H]2C[C@@H](n3cnc4ccc(F)cc4c3=O)C[C@@H]21 (stereo partly drawn) [Compound 63, 4-chloro-N-(1-((1R,3s,5S,6r)-3-(6-fluoro-4-oxoquinazolin-3(4H)-yl)bicyclo[3.1.0]hexan-6-yl)ethyl)benzamide]
10 | < 5.30 | COc1ccc(C(=O)NC(C)[C@H]2[C@@H]3C[C@@H](O)C[C@@H]32)cn1 (stereo partly drawn) [Compound 128, N-(1-((1R,3s,5S,6r)-3-hydroxybicyclo[3.1.0]hexan-6-yl)ethyl)-6-methoxynicotinamide]
11 | > 6.70 | CCC(NC(=O)c1ccc(Cl)cc1)[C@H]1[C@@H]2C[C@@H](n3cnc4cc(F)ccc4c3=O)C[C@@H]21 (stereo partly drawn) [Compound 34, 4-chloro-N-(1-((1R,3s,5S,6r)-3-(7-fluoro-4-oxoquinazolin-3(4H)-yl)bicyclo[3.1.0]hexan-6-yl)propyl)benzamide]
12 | > 6.70 | N#Cc1ccc(C(=O)NC[C@@H]2[C@H]3C[C@H](n4cnc5cc(F)c(F)cc54)C[C@@H]23)cc1 [Compound 302, 4-cyano-N-(((1R,3s,5S,6r)-3-(5,6-difluoro-1H-benzo[d]imidazol-1-yl)bicyclo[3.1.0]hexan-6-yl)methyl)benzamide]
13 | > 6.70 | CCC(NC(=O)c1ccc(Cl)cc1)[C@H]1[C@@H]2C[C@@H](Oc3cnc4ccccc4c3)C[C@@H]21 (stereo partly drawn) [Compound 49, 4-chloro-N-(1-((1R,3s,5S,6r)-3-(quinolin-3-yloxy)bicyclo[3.1.0]hexan-6-yl)propyl)benzamide]
14 | > 6.70 | CC[C@@H](NC(=O)c1cccc(F)c1)[C@H]1[C@@H]2C[C@@H](n3cnc4cc(F)c(F)cc43)C[C@@H]21 [Compound 312, N-((R)-1-((1R,3S,5S,6r)-3-(5,6-difluoro-1H-benzo[d]imidazol-1-yl)bicyclo[3.1.0]hexan-6-yl)propyl)-3-fluorobenzamide]
15 | 5.70 to 6.70 | O=C(Cc1ccc(Cl)cc1)NC1[C@H]2CC(Oc3cnnc4ccccc34)C[C@@H]12 (stereo partly drawn) [Compound 79, 2-(4-chlorophenyl)-N-((1R,3s,5S,6r)-3-(cinnolin-4-yloxy)bicyclo[3.1.0]hexan-6-yl)acetamide]
16 | > 6.70 | CC[C@@H](NC(=O)c1ccc(Cl)cc1)[C@H]1[C@@H]2C[C@H](c3cncc(C4CC4)c3)C[C@@H]21 [Compound 303, 4-chloro-N-((R)-1-((1R,3R,5S,6r)-3-(5-cyclopropylpyridin-3-yl)bicyclo[3.1.0]hexan-6-yl)propyl)benzamide]
17 | < 5.30 | CCC(NC(=O)c1ccc(Cl)cc1)[C@H]1[C@@H]2C[C@@H](n3cc(C(=O)O)nn3)C[C@@H]21 (stereo partly drawn) [Compound 94, 1-((1R,3s,5S,6r)-6-(1-(4-chlorobenzamido)propyl)bicyclo[3.1.0]hexan-3-yl)-1H-1,2,3-triazole-4-carboxylic acid]
18 | > 6.70 | CCC(NC(=O)c1ccc(Cl)cn1)C1C2CC(n3cnc4ccc(F)cc4c3=O)CC21 [Compound 75, 5-chloro-N-(1-((1R,3s,5S,6r)-3-(6-fluoro-4-oxoquinazolin-3(4H)-yl)bicyclo[3.1.0]hexan-6-yl)propyl)picolinamide]
19 | > 6.70 | CC[C@@H](NC(=O)c1ccc(Cl)cc1)[C@H]1[C@@H]2C[C@@H](c3ccnc4ccc(F)cc34)C[C@@H]21 [Compound 266, 4-chloro-N—((R)-1-((1R,3S,5S,6r)-3-(6-fluoroquinolin-4-yl)bicyclo[3.1.0]hexan-6-yl)propyl)benzamide]
20 | > 6.70 | CC[C@@H](NC(=O)N1CCC(F)(F)CC1)[C@H]1[C@@H]2C[C@@H](n3cnc4cc(F)c(F)cc43)C[C@@H]21 [Compound 355, N-((R)-1-((1R,3S,5S,6r)-3-(5,6-difluoro-1H-benzo[d]imidazol-1-yl)bicyclo[3.1.0]hexan-6-yl)propyl)-4,4-difluoropiperidine-1-carboxamide]
21 | > 6.70 | CCC(NC(=O)c1ccc(Cl)cc1)[C@H]1[C@@H]2C[C@@H](Oc3ncnc4ccc(F)cc34)C[C@@H]21 (stereo partly drawn) [Compound 5, 4-chloro-N-(1-((1R,3s,5S,6r)-3-((6-fluoroquinazolin-4-yl)oxy)bicyclo[3.1.0]hexan-6-yl)propyl)benzamide]
22 | < 5.30 | O=C(O)CC(NC(=O)c1ccc(Cl)cc1)[C@H]1[C@@H]2C[C@@H](Oc3ncnc4ccc(F)cc34)C[C@@H]21 (stereo partly drawn) [Compound 148, 3-(4-chlorobenzamido)-3-((1R,3s,5S,6r)-3-((6-fluoroquinazolin-4-yl)oxy)bicyclo[3.1.0]hexan-6-yl)propanoic acid]
23 | > 6.70 | CCC(NC(=O)c1ccc(Cl)cc1)[C@H]1[C@@H]2C[C@@H](Oc3ccc(F)cc3)C[C@@H]21 (stereo partly drawn) [Compound 14, 4-chloro-N-(1-((1R,3s,5S,6r)-3-(4-fluorophenoxy)bicyclo[3.1.0]hexan-6-yl)propyl)benzamide]

Source: patent US11173145B2, “Compounds useful as inhibitors of indoleamine 2,3-dioxygenase and/or tryptophan dioxygenase” (Board of Regents, The University of Texas System, priority 2017, dated 2021)
